Laboratory results from patent US20220267774A1, “METHODS AND COMPOSITIONS TO DIRECT BREAKDOWN OF INSULIN MRNA IN BENIGN FASHION” (CITY OF HOPE, priority 2019, published 2022).

Experiments:
[1] = tested on: cells transfected with INS-DRiP-GFP vectors; test: DRiP-GFP expression from INS-DRiP-GFP vectors; assay type: cell-based; settings: both variants
From the text: Method: Two vectors of INS-DRiP-GFP (one of the protective genotype and one of the susceptible genotype) that express insulin and DRiP linked to GFP were created (FIG. 28). The vectors were transfected into cells, and GFP expression was observed when translation is started at the DRiP start codon.

[2] = tested on: 293T cells transfected with INS-DRiP-GFP; test: Effect of ER stress inducers on DRiP expression in INS-DRiP-GFP transfected cells; assay type: cell-based, human; settings: western blot and flow cytometry
From the text: FIG. 8A is a western blot of 293T cell lysates (left to right) in nontransfected cells (NT), or cells transfected with INS-DRiP-GFP that were untreated (−), stimulated with thapsigargin (TG), or stimulated with tunicamycin (TM). The western blot in FIG. 8A is labeled using anti-GFP, anti-insulin, and anti-actin antibodies. FIG. 8B is a chart depicting densitometry analyses of the western blot in FIG. 8A analyzing the GFP (black bars) and insulin bands (gray bars) and shown as induction ratio±s.d. where the intensity of the nontreated cells was used as reference (right).
The effect of endoplasmic reticulum stress (ER stress) on translation initiation was also determined. Cells transfected with INS-DRiP-GFP were stimulated with the ER stress-inducers thapsigargin (TG) or tunicamycin (TM).

[3] = tested on: human beta cell line (1.1B4); test: Insulin mRNA and DRiP protein expression in beta cell line under stress; assay type: cell-based; settings: 1.1B4 cells stressed with TG
From the text: FIGS. 22A-B illustrates ex vivo cleavage of insulin mRNA in a cell line. FIG. 22A is a bar graph illustrating insulin mRNA expression change when beta cells are stressed with Thapsigargin (TG). FIG. 22B is a bar graph illustrating DRiP protein expression when beta cells are stressed with TG.
Ex vivo insulin mRNA expression and DRiP protein expression in beta cell line under stress. Ex vivo cleavage of insulin mRNA was examined in a 1.1B4 cell line. A human beta cell line (1.1B4) was stressed with Thapsigargin (chemical), with or without inhibition of IRE1, followed by analysis of the insulin mRNA expression and DRiP protein expression. […] But it is not enough to prevent an increase in DRiP expression. The protective SNP may have this effect ex vivo.

HLA-DQ8cis [4] = target: HLA-DQ8cis (Homo sapiens, UniProt P01909+P01920, A209T/A45G/C70Q/D89A/E183D/E77G/F237L/G63E/H199R/I129T/K197E/L178F/L74F/L98V/Q57E/Q76R/S185I/S97I/T217I/T49S/V73L/Y58L); settings: cell-free; cited from earlier work
HLA-DQ2trans [5] = target: HLA-DQ2trans (Homo sapiens, UniProt P01909+P01920, A45G/A70V/C70Q/D89A/E106A/E183D/E77G/E98D/G63E/H199R/I129T/K197E/L107V/L178F/L74F/L98V/N214S/P84L/P87L/Q57E/Q76R/S185I/S97I/T103K/T109R/T172A/T49S/T60S/V73L/V78E/V99I/Y58L/Y62S/Y69I/Y79F); settings: cell-free; cited from earlier work
HLA-DQ8trans [6] = target: HLA-DQ8trans (Homo sapiens, UniProt P01909+P01920, A45G/D89A/E77G/H199R/N214S/Y58L); settings: cell-free; cited from earlier work
HLA-A2 = settings: cited from earlier work
HLA-DQ8trans [7] = target: T1, HLA-DQ8trans (human, UniProt P01909 24-216; P01920 33-230, limits assumed); test: cell-free HLA-DQ binding studies
T1 construct: Formed by the alpha-chain of HLA-DQ2 (DQA1*05:01) and the beta-chain of HLA-DQ8 (DQB1*03:02) (so in the source)
T1 MHC II alpha: not shown
T1 MHC II beta: not shown

HLA-DQ2trans [8] = target: T2, HLA-DQ2trans (human, UniProt P01909 24-216, limits assumed); test: cell-free HLA-DQ binding studies
T2 construct: Formed by the alpha-chain of HLA-DQ8 (DQA1*03:01) and the beta-chain of HLA-DQ2 (DQB1*02:01) (so in the source)
T2 MHC II alpha: not shown
T2 MHC II beta: not shown

HLA-DQ2cis = HLA-DQ2cis (human, UniProt P01909 24-216, limits assumed); test: cell-free HLA-DQ binding studies
HLA-DQ8cis [9] = target: T3, HLA-DQ8cis (human, UniProt P01909 24-216; P01920 33-230, limits assumed); test: cell-free HLA-DQ binding studies
T3 MHC II alpha: not shown
T3 MHC II beta: not shown

C/C=C(/C)C(=O)O[C@H]1C(C)=C2[C@H]([C@@H]1OC(=O)CCCCCCC)[C@@](C)(OC(C)=O)C[C@H](OC(=O)CCC)[C@@]1(O)[C@H]2OC(=O)[C@@]1(C)O [TG, thapsigargin]
effect on DRiP-GFP expression [1]: increased in both variants
expression of DRiP polypeptide [2]: increased
DRiP protein expression [3]: goes up
insulin RNA expression ([3]; with or without IRE1 inhibition): goes down

MLYQHLLPL [INS-DRiP1-9]
binding affinity to HLA-DQ8cis (HLA-DQ8cis [4]): strong binding affinity
binding affinity to HLA-DQ2trans (HLA-DQ2trans [5]): not
binding affinity to HLA-DQ8trans (HLA-DQ8trans [6]): strong binding affinity
binding to HLA-A2 (HLA-A2): high affinity

tunicamycin [TM]
expression of DRiP polypeptide [2]: increased by TG but not TM

B1: INS-DRiP1-9 epitope MLYQHLLPL (peptide)
peptide: MLYQHLLPL
notes: Synthetic counterpart of the N-terminal 9-mer of INS-DRiP; also called 9-mer peptide; INS-DRiP peptide fragment
binding result (HLA-DQ8trans [7]): binds
binding result (HLA-DQ2trans [8]): no binding
binding result (HLA-DQ2cis): no binding
binding result (HLA-DQ8cis [9]): binds
